The test system of assay [1] is HeLa. Kind of assay: Induction of microtubule disruption in human HeLa cells assessed as dense microtubule at 1 uM after 6 hrs by DAPI staining based immunofluorescence microscopic analysis. The assay is classed as cell-based.
The subject of assay [2] is HeLa. Kind of assay: Induction of microtubule disruption in human HeLa cells assessed as short microtubule at 1 uM after 6 hrs by DAPI staining based immunofluorescence microscopic analysis. The assay is classed as cell-based.
Assay [3] concerns HeLa. Description: Induction of microtubule disruption in human HeLa cells assessed as round microtubule at 1 uM after 6 hrs by DAPI staining based immunofluorescence microscopic analysis. The assay is classed as cell-based.
Another assay has as its system A549. Description: Cytotoxicity against human A549 cells after 48 hrs by MTT assay. The assay is classed as functional, cell-based. Particulars: A549, 48 h.
Assay [4] deals with HeLa. Description: Cytotoxicity against human HeLa cells after 48 hrs by MTT assay. The assay is classed as functional, cell-based. On the technique in general: Tetrazolium assays rely on reduction of a dye to a coloured formazan, in cell work by metabolically active cells.
For the next assay, the system named is WI-38. Description: Cytotoxicity against human WI38 cells after 48 hrs by MTT assay. The assay is classed as cell-based. The conditions noted are these: WI-38, 48 h.
A further assay deals with HCT-8. Description: Cytotoxicity against human HCT8 cells after 48 hrs by MTT assay. Particulars: HCT-8, 48 h. The assay is classed as functional, cell-based.
In another assay the test system is HepG2. Description: Cytotoxicity against human HepG2 cells after 48 hrs by MTT assay. Particulars: HepG2, 48 h. The assay is classed as functional, cell-based.
In assay [5] the test system is HeLa. Kind of assay: Inhibition of tubulin polymerization in human HeLa cells assessed as reduction in polymerized tubulin expression at 2 uM after 24 hrs by chemiluminescence assay. In kind it is cell-based.
The test system of assay [6] is HeLa. Kind of assay: Induction of apoptosis in human HeLa cells assessed as increase in intracellular reactive oxygen species level after 24 hrs by DCFH-DA staining based laser confocal microscopic analysis. In kind it is functional, cell-based.
The subject of assay [7] is HeLa. Description: Induction of microtubule disruption in human HeLa cells assessed as short microtubule after 6 hrs by DAPI staining based immunofluorescence microscopic analysis. The assay is classed as cell-based.
For assay [8], the system named is HeLa. Kind of assay: Upregulation of CDC2 expression in human HeLa cells after 24 hrs by Western blot analysis. The assay is classed as functional, cell-based. In general terms: A western blot detects proteins with antibodies after separation by electrophoresis.
Assay [9] concerns HeLa. Kind of assay: Cell cycel arrest in human HeLa cells assessed as increase in accumulation at G2/M phase after 24 hrs by propidium iodide staining based assay. The assay is classed as functional.
Assay [10] has as its system HeLa. Kind of assay: Induction of microtubule disruption in human HeLa cells assessed as cell shrinkage after 6 hrs by DAPI staining based immunofluorescence microscopic analysis.
The target in assay [11] is Cyclin-dependent kinase 1 (Homo sapiens) (UniProt P06493). Description: Reduction in phosphorylated CDC2 level in human HeLa cells after 24 hrs by Western blot analysis. The assay is classed as cell-based.
Assay [12] has as its system HeLa. Description: Induction of microtubule disruption in human HeLa cells assessed as round microtubule after 6 hrs by DAPI staining based immunofluorescence microscopic analysis. In kind it is cell-based.
The subject of assay [13] is HeLa. Kind of assay: Cell cycel arrest in human HeLa cells assessed as decrease in accumulation at G1 phase after 24 hrs by propidium iodide staining based assay. In kind it is functional.
The test system of assay [14] is HeLa. Description: Upregulation of cyclin B1 expression in human HeLa cells after 24 hrs by Western blot analysis. The assay is classed as functional, cell-based.
Assay [15] deals with HeLa. Description: Induction of apoptosis in human HeLa cells assessed as upregulation of p53 expression by Western blot analysis. The assay is classed as functional, cell-based.
Assay [16] deals with HeLa. Kind of assay: Induction of microtubule disruption in human HeLa cells assessed as dense microtubule after 6 hrs by DAPI staining based immunofluorescence microscopic analysis. The assay is classed as cell-based.
In assay [17] the test system is HeLa. Description: Inhibition of tubulin polymerization in human HeLa cells assessed as reduction in polymerized tubulin expression at 0.5 uM after 24 hrs by chemiluminescence assay. The assay is classed as cell-based.
Assay [18] relates to HeLa. Kind of assay: Induction of microtubule disruption in human HeLa cells assessed as nuclear fragmentation after 6 hrs by DAPI staining based immunofluorescence microscopic analysis. The assay is classed as cell-based.
For assay [19], the system named is HeLa. Kind of assay: Induction of microtubule disruption in human HeLa cells assessed as nuclear condensation after 6 hrs by DAPI staining based immunofluorescence microscopic analysis. In kind it is cell-based.
In assay [20] the test system is HeLa. Description: Induction of apoptosis in human HeLa cells assessed as nuclear fragmentation at 0.1 to 1 uM after 24 hrs by Hoechst 33258 staining based fluorescence microscopic analysis. In kind it is functional, cell-based.
Assay [21] concerns HeLa. Kind of assay: Induction of apoptosis in human HeLa cells assessed as morphological changes at 0.1 to 1 uM after 24 hrs by Hoechst 33258 staining based fluorescence microscopic analysis. The assay is classed as functional, cell-based.

Activity calls are given as the source filed them. No cut-off for these calls is given here.

Chain of Cyclin-dependent kinase 1 (Homo sapiens) (P06493 whole entry, looked up): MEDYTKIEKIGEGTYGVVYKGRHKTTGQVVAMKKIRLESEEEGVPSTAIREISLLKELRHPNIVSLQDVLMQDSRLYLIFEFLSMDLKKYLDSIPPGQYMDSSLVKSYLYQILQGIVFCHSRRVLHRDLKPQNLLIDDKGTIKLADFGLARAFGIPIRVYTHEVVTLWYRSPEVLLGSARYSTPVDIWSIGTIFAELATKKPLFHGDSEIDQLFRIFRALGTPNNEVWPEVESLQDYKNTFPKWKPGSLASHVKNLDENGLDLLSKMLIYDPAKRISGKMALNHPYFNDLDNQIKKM

As for `COc1cc2c(c(OC)c1OC)-c1ccc(OC)c(=O)cc1[C@@H](NC(C)=O)CC2`, the outcome with HeLa [1], in the assay on HeLa [2] and in the assay with HeLa [3] was Active.
Regarding `COc1cc([C@@H]2c3cc4c(cc3[C@H](OC(=O)NS(=O)(=O)N3CCN(C5CCCC5)CC3)[C@H]3COC(=O)[C@H]23)OCO4)cc(OC)c1OC`, the figures for the IC50 in the assay on A549, in the assay with HeLa [4] and in the assay on WI-38 were 9.8 µM, 57.6 µM and 47.9 µM, respectively.
On to `COc1cc([C@@H]2c3cc4c(cc3[C@H](OC(=O)NS(=O)(=O)NC3CCN(C)CC3)[C@H]3COC(=O)[C@H]23)OCO4)cc(OC)c1OC`, for which the 50% inhibitory concentration (IC50) in the assay on HCT-8 came out at 96 µM; in the assay on A549, 3.3 µM; in the assay on HeLa [4], 4.1 µM; in the assay with HepG2 it was 15.6 µM; in the assay with WI-38, 68.7 µM.
Regarding `COc1cc([C@@H]2c3cc4c(cc3[C@@H](O[C@@H]3O[C@@H]5CO[C@@H](C)O[C@H]5[C@H](O)[C@H]3O)[C@H]3COC(=O)[C@H]23)OCO4)cc(OC)c1O` [ETOPOSIDE], the IC50 is 26.3 µM with HCT-8, 24.9 µM in the assay on HeLa [4], 13.4 µM with HepG2 and 46.9 µM in the assay on WI-38.
Consider `COc1cc([C@@H]2c3cc4c(cc3[C@H](OC(=O)NS(=O)(=O)NC3CC3)[C@H]3COC(=O)[C@H]23)OCO4)cc(OC)c1OC`, for which the IC50 with HCT-8 stood at 45 µM; in the assay with A549, 4.3 µM; with HeLa [4], 3.9 µM; with HepG2, 8.8 µM; in the assay with WI-38, 65.3 µM.
For the molecule `COc1cc([C@@H]2c3cc4c(cc3[C@H](OC(=O)NS(=O)(=O)N3CCN(c5ccc(F)cc5)CC3)[C@H]3COC(=O)[C@H]23)OCO4)cc(OC)c1OC`, the IC50 in the assay with A549 was found to be 12.2 µM; with HeLa [4], 7.6 µM; with WI-38, 44.3 µM.
Turning to `CC(=O)O[C@H]1C(=O)[C@@]2(C)[C@H]([C@H](OC(=O)c3ccccc3)[C@]3(O)C[C@H](OC(=O)[C@H](O)[C@@H](NC(=O)c4ccccc4)c4ccccc4)C(C)=C1C3(C)C)[C@]1(OC(C)=O)CO[C@@H]1C[C@@H]2O`, the inhibition entry with HeLa [5] was “inactive”.
As for `CCCNS(=O)(=O)NC(=O)O[C@H]1c2cc3c(cc2[C@@H](c2cc(OC)c(OC)c(OC)c2)[C@H]2C(=O)OC[C@@H]21)OCO3`, the IC50 in the assay with HCT-8 is 23.2 µM; in the assay with A549, 9 µM; in the assay with HeLa [4] it was 1.9 µM; in the assay with HepG2, 2.8 µM; with WI-38, 63.3 µM.
Take `COc1cc([C@@H]2c3cc4c(cc3[C@H](OC(=O)NS(=O)(=O)N3CCOCC3)[C@H]3COC(=O)[C@H]23)OCO4)cc(OC)c1OC`: the Activity entry (with HeLa [6]; in the assay on HeLa [7]; in the assay with HeLa [8]; in the assay on HeLa [9]; with HeLa [10]; in [11]) was “Dose-dependent effect” each time. In addition, the Activity result with HeLa [12], with HeLa [13], in the assay on HeLa [14], with HeLa [15], in the assay with HeLa [16] and in the assay with HeLa [18] was “Dose-dependent effect” throughout. Moreover, the Activity entry with HeLa [19] is “Dose-dependent effect”. Besides, the inhibition entry with HeLa [5] and in the assay with HeLa [17] was “Active” in each case. Moreover, the half-maximal inhibitory concentration (IC50) in the assay on HCT-8 was determined as 16.5 µM; with A549 it was 1.5 µM; in the assay with HeLa [4] it was 0.5 µM; in the assay with HepG2 it was 0.7 µM; with WI-38 it was 109 µM. Moreover, the outcome in the assay on HeLa [20] and with HeLa [21] was Active.
Turning to `COc1cc([C@@H]2c3cc4c(cc3[C@H](OC(=O)NS(=O)(=O)N3CCN(C)CC3)[C@H]3COC(=O)[C@H]23)OCO4)cc(OC)c1OC`, the IC50 was over 100 µM with HCT-8; 5.9 µM in the assay on A549; 0.4 µM in the assay with HeLa [4]; 1.5 µM in the assay with HepG2; 86.5 µM with WI-38.
The like results for `COc1cc([C@@H]2c3cc4c(cc3[C@H](OC(=O)NS(=O)(=O)N3CCN(c5ccc([N+](=O)[O-])cc5)CC3)[C@H]3COC(=O)[C@H]23)OCO4)cc(OC)c1OC` were, in that order, over 100 µM, 13.7 µM, 35.6 µM, 6 µM and 77.2 µM.
The like results for `COc1cc([C@@H]2c3cc4c(cc3[C@H](OC(=O)NS(=O)(=O)NC3CCCCC3)[C@H]3COC(=O)[C@H]23)OCO4)cc(OC)c1OC` were, in that order, 20.1 µM, 2.6 µM, 4.6 µM, 3.7 µM and 78.5 µM.

By IC50 is commonly meant the concentration that gives 50% inhibition. Lower therefore signals greater potency in that assay.

These data come from ChEMBL document CHEMBL4033698, “One-pot synthesis and biological evaluation of N-(aminosulfonyl)-4-podophyllotoxin carbamates as potential anticancer agents” (Bioorg Med Chem Lett, 2017).
